According to patent publication US7563791B2, “Pyrrolotriazine derivatives useful for treating hyper-proliferative disorders and diseases associated with angiogenesis” (Bayer Pharmaceuticals Corporation, priority 2004, dated 2009):

What was measured:
Type in all cases: cell-based
HCT116 cells = experiment: Tumor cell proliferation (Alamar Blue), HCT116; conditions: Homo sapiens, HCT-116, 72 h
Experimental: (§1) Human tumor cells (e.g., HCT116 or MDA-MB-231 cells), are seeded in a Costar 96-well plate at 3.0×10^3 cells/well and grown in 150 μl of RPMI complete media (Invitrogen Corporation, Grand Island, N.Y.) containing 10% fetal bovine serum (Hyclone, Logan, Utah) at 37° C. for 16 h in an incubator with 5% CO2. To each well, 50 μl of additional growth media containing 40 μM to 18 nM concentrations of compound with 0.4% DMSO is added. Cells are grown for another 72 h at 37° C. with 5% CO2. 20 μl of Alamar Blue (Trek Diagnostic Systems, Inc., Cleveland, Ohio) reagent is added to each well and incubated for 3 h at 37° C. Plates are read in a SpectraMax Gemini (Molecular Devices, Calif.) with 544 nm excitation and 590 nm emission wavelength. IC50 values are determined by linear regression analysis of log drug concentration versus percent inhibition.

MDA-MB-231 cells = experiment: Tumor cell proliferation (Alamar Blue), MDA-MB-231; conditions: Homo sapiens, MDA-MB-231, 72 h
Experimental: as §1

[1] = tested on: VEGF stimulated Phospho-ERK in HUVEC; experiment: Growth factor stimulated p-ERK assay in HUVECs (VEGF stimulation, ERK1/2 Bioplex); conditions: Homo sapiens, compound 2 hrs, then 50 ng/ml VEGF 10 min; for inhibition at 0.1 µM: @ 100 nM
Experimental: Growth Factor Stimulated p-ERK assay in HUVECs
Exponentially growing human endothelial HUVECs cells (human umbilical vein endothelial cells, cat# CC-2517, Cambrex, Walkersville, Md.) were seeded at twenty five thousand cells/well in 96 well plates in EBM-2 MV medium with growth factors (cat# CC-3202, Cambrex) and grown at 37° C. in 5% CO2. Sixteen hours post-plating, the cells were changed to serum-free medium (RPMI 1640 containing 0.1% BSA (bovine serum albumin) and compounds were added at different concentrations for 2 hrs, after which the cells were stimulated for 10 min with 50 ng/ml of either VEGF (vascular endothelial growth factor, Protein Sciences, Meriden, Conn.) or bFGF (basic fibroblast growth factor cat# PHG0026, Biosource International, Camarillo, Calif.). The rest of the assay was performed per manufacturer indications for the ERK½ Bioplex assay (cat#171-304004, Bio-Rad, Hercules, Calif.). After removing culture medium by aspiration, the cells were quickly rinsed with 100 μl of cell wash buffer A to stop treatment reaction. Eighty microliters of cell lysis buffer were then immediately added to each well of the 96 well plate which was put on ice. Cells in each well were lysed by pipetting up and down 5 times with a multi-channel pipet. The plate was then agitated on a microtiter plate shaker at 300 rpm for 20 min at 4° C. Cellular debris were pelleted by centrifugation at 4500 g for 15 min at 4° C. and the supernatant was collected. Forty five microliters of supernatant was diluted with an equal volume of Bio-Plex phosphoprotein assay Buffer B, The coupled and color coated beads were added into a 96 well filter plate, and the prepared lysates were added. The beads and lysate mixture was incubated at room temperature for 15-18 hrs. The following day, the plate was vacuum-filtered and then washed 3×. Twenty-five microliters of detection antibody solution were added to each well and the plate was then incubated for 30 min at room temperature. The plate was then vaccum-filtered and washed as described previously. Fifty microliters of streptavidin-PE solution was added to each well, the plate was incubated for 10 min at room temperature and then was then vaccum-filtered and washed as described above. One hundred twenty-five microliters of resuspension buffer was added to each well and data were acquired on the Luminex 100 instrument (Bio-Rad).

| IC50 (MDA-MB-231 cells) [µM] | Structure (SMILES) | inhibition at 0.1 µM [1] [%] | inhibition at 1 µM [1] [%] | other results |
| --- | --- | --- | --- | --- |
| > 0.5 | Nc1ncnn2cc(-c3ncco3)c(-c3ccc(NC(=O)Nc4cc(C(F)(F)F)ccn4)cc3)c12 [Example 235, N-{4-[4-amino-6-(1,3-oxazol-2-yl)pyrrolo[2,1-f][1,2,4]triazin-5-yl]phenyl}-N′-[4-(trifluoromethyl)pyridin-2-yl]urea] | – | – | IC50 (HCT116 cells): < 0.5 µM; IC50 (MDA-MB-231 cells; bounds given in μM): < 1.5 µM |
| > 0.5 | Nc1ncnn2cc(C(=O)NC3CC3)c(-c3ccc(NC(=O)Nc4cc(C(F)(F)F)ccn4)cc3)c12 [Example 82, 4-amino-N-cyclopropyl-5-{4-[({[4-(trifluoromethyl)pyridin-2-yl]amino}carbonyl)amino]phenyl}pyrrolo[2,1-f][1,2,4]triazine-6-carboxamide] | – | – | IC50 (HCT116 cells; bounds given in μM): 1.5 to 5 µM; IC50 (MDA-MB-231 cells; bounds given in μM): < 1.5 µM |
| < 0.5 | CCNC(=O)c1cn2ncnc(N)c2c1-c1ccc(NC(=O)Nc2cc(C(F)(F)F)ccc2F)cc1 [Example 71, 4-amino-N-ethyl-5-{4-[({[2-fluoro-5-(trifluoromethyl)phenyl]amino}carbonyl)amino]phenyl}pyrrolo[2,1-f][1,2,4]triazine-6-carboxamide] | – | – | IC50 (HCT116 cells): > 0.5 µM; IC50 (HCT116 cells; bounds given in μM): < 1.5 µM |
| – | CCOC(=O)c1cn2ncnc(N)c2c1-c1ccc(NC(=O)Nc2cc(C(F)(F)F)ccn2)c(F)c1 [Example 242, ethyl 4-amino-5-{3-fluoro-4-[({[4-(trifluoromethyl)pyridin-2-yl]amino}carbonyl)amino]phenyl}pyrrolo[2,1-f][1,2,4]triazine-6-carboxylate] | – | – | IC50 (HCT116 cells; bounds given in μM): 1.5 to 5 µM; IC50 (MDA-MB-231 cells; bounds given in μM): 1.5 to 5 µM |
| < 0.5 | CCOC(=O)c1cn2ncnc(N)c2c1-c1ccc(NC(=O)Nc2cc(C(C)(C)C)nn2-c2ccc(F)cc2)cc1 [Example 25, ethyl 4-amino-5-{4-[({[3-tert-butyl-1-(4-fluorophenyl)-1H-pyrazol-5-yl]amino}carbonyl)amino]phenyl}pyrrolo[2,1-f][1,2,4]triazine-6-carboxylate] | – | – | IC50 (HCT116 cells): < 0.5 µM |
| > 0.5 | N#Cc1cn2ncnc(N)c2c1-c1ccc(NC(=O)Nc2cc(C(F)(F)F)ccc2F)c(F)c1 [Example 256, N-[4-(4-amino-6-cyanopyrrolo[2,1-f][1,2,4]triazin-5-yl)-2-fluorophenyl]-N′-[2-fluoro-5-(trifluoromethyl)phenyl]urea] | – | – | IC50 (HCT116 cells): > 0.5 µM; IC50 (HCT116 cells; bounds given in μM): < 1.5 µM; IC50 (MDA-MB-231 cells; bounds given in μM): < 1.5 µM |
| – | Nc1ncnn2cc(CCCN3CCOCC3)c(-c3ccc(NC(=O)Nc4cc(C(F)(F)F)ccc4F)cc3)c12 [Example 66, N-{4-[4-amino-6-(3-morpholin-4-ylpropyl)pyrrolo[2,1-f][1,2,4]triazin-5-yl]phenyl}-N′-[2-fluoro-5-(trifluoromethyl)phenyl]urea] | < 50 | > 50 | – |
| – | Nc1ncnn2cc(C(=O)NCCCN3CCCC3)c(-c3ccc(NC(=O)Nc4cc(C(F)(F)F)ccc4F)cc3)c12 [Example 62, 4-amino-5-{4-[({[2-fluoro-5-(trifluoromethyl)phenyl]amino}carbonyl)amino]phenyl}-N-(3-pyrrolidin-1-ylpropyl)pyrrolo[2,1-f][1,2,4]triazine-6-carboxamide] | < 50 | < 50 | inhibition at 10 µM [1]: > 50% |
| – | COCCN1CCN(Cc2cn3ncnc(N)c3c2-c2ccc(NC(=O)Nc3cc(C(F)(F)F)ccc3F)cc2)CC1 [Example 41, N-[4-(4-amino-6-{[4-(2-methoxyethyl)piperazin-1-yl]methyl}pyrrolo[2,1-f][1,2,4]triazin-5-yl)phenyl]-N′-[2-fluoro-5-(trifluoromethyl)phenyl]urea] | < 50 | > 50 | – |
| – | COCCN(C)C(=O)c1cn2ncnc(N)c2c1-c1ccc(NC(=O)Nc2ccc(F)c(C(F)(F)F)c2)cc1 [Example 84, 4-amino-5-{4-[({[4-fluoro-3-(trifluoromethyl)phenyl]amino}carbonyl)amino]phenyl}-N-(2-methoxyethyl)-N-methylpyrrolo[2,1-f][1,2,4]triazine-6-carboxamide] | – | – | IC50 (HCT116 cells; bounds given in μM): 5 to 10 µM |
| – | CCOC(=O)c1cn2ncnc(N)c2c1-c1ccc(NC(=O)Nc2cccc(OC(F)(F)F)c2)cc1 [Example 9, ethyl 4-amino-5-{4-[({[3-(trifluoromethoxy)phenyl]amino}carbonyl)amino]phenyl}pyrrolo[2,1-f][1,2,4]triazine-6-carboxylate] | > 50 | – | – |
| – | CCOC(=O)c1cn2ncnc(N)c2c1-c1ccc(NC(=O)Nc2ccc3c(c2)OC(F)(F)C(F)(F)O3)cc1 [Example 22, ethyl 4-amino-5-[4-({[(2,2,3,3-tetrafluoro-2,3-dihydro-1,4-benzodioxin-6-yl)amino]carbonyl}amino)phenyl]pyrrolo[2,1-f][1,2,4]triazine-6-carboxylate] | < 50 | > 50 | – |
| > 0.5 | Nc1ncnn2cc(CO)c(-c3ccc(NC(=O)Nc4cc(C(F)(F)F)ccc4F)c(F)c3)c12 [Example 251, N-{4-[4-amino-6-(hydroxymethyl)pyrrolo[2,1-f][1,2,4]triazin-5-yl]-2-fluorophenyl}-N′-[2-fluoro-5-(trifluoromethyl)phenyl]urea] | – | – | IC50 (MDA-MB-231 cells; bounds given in μM): < 1.5 µM |
| – | Nc1ncnn2cc(CNCCC(F)(F)F)c(-c3ccc(NC(=O)Nc4cc(C(F)(F)F)ccc4F)cc3)c12 [Example 39, N-[4-(4-amino-6-{[(3,3,3-trifluoropropyl)amino]methyl}pyrrolo[2,1-f][1,2,4]triazin-5-yl)phenyl]-N′-[2-fluoro-5-(trifluoromethyl)phenyl]urea] | < 50 | > 50 | – |
| – | CC(C)(CO)NC(=O)c1cn2ncnc(N)c2c1-c1ccc(NC(=O)Nc2cc(C(F)(F)F)ccc2Cl)cc1 [Example 143, 4-amino-5-{4-[({[2-chloro-5-(trifluoromethyl)phenyl]amino}carbonyl)amino]phenyl}-N-(2-hydroxy-1,1-dimethylethyl)pyrrolo[2,1-f][1,2,4]triazine-6-carboxamide] | < 50 | > 50 | – |
| – | CC(C)(C)NC(=O)c1cn2ncnc(N)c2c1-c1ccc(NC(=O)Nc2cc(C(F)(F)F)ccc2F)cc1 [Example 75, 4-amino-N-(tert-butyl)-5-{4-[({[2-fluoro-5-(trifluoromethyl)phenyl]amino}carbonyl)amino]phenyl}pyrrolo[2,1-f][1,2,4]triazine-6-carboxamide] | < 50 | > 50 | – |
| – | CCOC(=O)c1cn2ncnc(N)c2c1-c1ccc(NC(=O)Nc2cc(OC)ncn2)cc1 [Example 29, ethyl 4-amino-5-[4-({[(6-methoxypyrimidin-4-yl)amino]carbonyl}amino)phenyl]pyrrolo[2,1-f][1,2,4]triazine-6-carboxylate] | < 50 | > 50 | – |
| – | CCOC(=O)c1cn2ncnc(N)c2c1-c1ccc(NC(=O)Nc2ccc(OC)c(CN3CCOCC3)c2)cc1 [Example 96, ethyl 4-amino-5-{4-[({[4-methoxy-3-(morpholin-4-ylmethyl)phenyl]amino}carbonyl)amino]phenyl}pyrrolo[2,1-f][1,2,4]triazine-6-carboxylate] | < 50 | < 50 | inhibition at 10 µM [1]: > 50% |
| – | COCCNCc1cn2ncnc(N)c2c1-c1ccc(NC(=O)Nc2cc(C(F)(F)F)ccc2F)cc1 [Example 32, N-[4-(4-amino-6-{[(2-methoxyethyl)amino]methyl}pyrrolo[2,1-f][1,2,4]triazin-5-yl)phenyl]-N′-[2-fluoro-5-(trifluoromethyl)phenyl]urea] | > 50 | – | – |
